# Results as given in PMC12724327, “Structure-guided discovery of a small molecule inhibitor of SARS-CoV-2 main protease with potent in vitro and in vivo antiviral activities” (Journal of Virology, 2025).
# Like-named read-outs stand apart in the source and are kept apart here.
# Experiments:
# SARS-CoV-2 M^pro = SARS-CoV-2 M^pro (Severe acute respiratory syndrome coronavirus 2, UniProt P0DTD1); assay: biochemical; assay type: biochemical; conditions: for IC50: 150 nM enzyme, 30 min pre-incubation at 37°C
# Cathepsin B = biological target: T1, Cathepsin B (Homo sapiens, UniProt P07858); assay: Selectivity assay, Cathepsin B inhibitor screening kit; assay type: biochemical
# T1 construct: purchased BioVision K147-100
# Description: (§1) The biochemical activity against several common human cysteine proteases was assessed using Cathepsin B inhibitor screening kit (BioVision, K147-100), Cathepsin L inhibitor screening kit (BioVision, K161-100), and Caspase 2 inhibitor drug screening kit (BioVision, K152-100) following the manufacturer’s instructions.
# Cathepsin L = biological target: T2, Cathepsin L (Homo sapiens, UniProt P07711); assay: Selectivity assay, Cathepsin L inhibitor screening kit; assay type: biochemical
# T2 construct: purchased BioVision K161-100
# T2 sequence (P07711 114-333): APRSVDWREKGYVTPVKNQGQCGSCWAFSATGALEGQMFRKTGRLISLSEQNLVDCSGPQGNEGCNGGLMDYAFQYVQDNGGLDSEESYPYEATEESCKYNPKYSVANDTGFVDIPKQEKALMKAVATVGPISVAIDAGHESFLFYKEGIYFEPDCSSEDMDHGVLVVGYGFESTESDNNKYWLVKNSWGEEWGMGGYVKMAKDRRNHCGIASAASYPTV
# Description: as §1
# Caspase 2 = biological target: T3, Caspase 2 (Homo sapiens, UniProt P42575); assay: Selectivity assay, Caspase 2 inhibitor drug screening kit; assay type: biochemical
# T3 construct: purchased BioVision K152-100
# T3 sequence (P42575 348-452): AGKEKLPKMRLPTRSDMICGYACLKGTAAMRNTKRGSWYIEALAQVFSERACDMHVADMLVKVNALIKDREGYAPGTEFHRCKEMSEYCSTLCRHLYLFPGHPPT
# T3 sequence (P42575 170-325): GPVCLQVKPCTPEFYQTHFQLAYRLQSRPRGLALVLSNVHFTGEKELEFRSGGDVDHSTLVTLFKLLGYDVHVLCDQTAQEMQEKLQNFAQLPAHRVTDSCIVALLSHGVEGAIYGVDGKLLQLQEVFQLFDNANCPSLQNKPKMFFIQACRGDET
# Description: as §1
# WT SARS-CoV-2 HKU-001a = assay type: cell-based
# SARS-CoV-2 B.1.1.7/Alpha = assay: Viral load reduction assay in VeroE6-TMPRSS2 cells, Alpha; assay type: cell-based
# [1] = test system: SARS-CoV-2 B.1.617.2/Delta; assay: Viral load reduction assay in VeroE6-TMPRSS2 cells, Delta; assay type: cell-based
# SARS-CoV-2 XBB.1.5 = assay: Viral load reduction assay in VeroE6-TMPRSS2 cells, XBB.1.5; assay type: cell-based
# [2] = test system: SARS-CoV-2 Omicron BA.5.2; assay: Viral load reduction assay in VeroE6-TMPRSS2 cells, BA.5.2; assay type: cell-based
# SARS-CoV-2 EG.5.1 = assay: Viral load reduction assay in VeroE6-TMPRSS2 cells, EG.5.1; assay type: cell-based
# SARS-CoV-2 JN.1.1 = assay: Viral load reduction assay in VeroE6-TMPRSS2 cells, JN.1.1; assay type: cell-based
# SARS-CoV-2 [3] = assay: Antiviral activity in human lung Calu-3 cells; assay type: cell-based; conditions: Severe acute respiratory syndrome coronavirus 2
# SARS-CoV-2 [4] = assay: In vivo antiviral evaluation in the golden Syrian hamster model
# [5] = test system: SARS-CoV-2 Alpha strain (B.1.1.7); assay type: in vivo, K18-hACE2 mice
# VeroE6-TMPRSS2 cells = conditions: 48 h, CellTiter-Glo
# Description: (B) Cytotoxicity of H135 in VeroE6-TMPRSS2 cells was measured by CellTiter-Glo assay for 48 h.
# [6] = 300 mg/kg/day for three days, body weight recorded 14 days, no virus infection
structure (smiles),measurement,setting,value
CC(C)(C)OC(=O)N[C@H](C(=O)N1C[C@H](Oc2ccccc2)C[C@H]1C(=O)N[C@H](C#N)C[C@@H]1CCNC1=O)C(C)(C)C [H140],IC50,SARS-CoV-2 M^pro,6770 nM
CC(C)(C)[C@H](NC(=O)C(F)(F)F)C(=O)N1C[C@H](OC(F)F)C[C@H]1C(=O)N[C@H](C#N)C[C@@H]1CCNC1=O [H122],IC50,SARS-CoV-2 M^pro; mean ± SEM,106 ± 2.8 nM
N#C[C@H](C[C@@H]1CCNC1=O)NC(=O)[C@@H]1C[C@@H](OC(F)(F)F)CN1C(=O)[C@@H](NC(=O)C1(F)CC1)C1CCCCC1 [H135],IC50,SARS-CoV-2 M^pro; mean ± SEM,12.7 ± 0.1 nM
same,Ki,SARS-CoV-2 M^pro; read-out: inhibitory constant (Ki),156 nM
same,SARS-CoV-2 M^pro inhibitory potency enhanced,SARS-CoV-2 M^pro; relative to hit compound H109,32 folds
same,IC50,Cathepsin B,> 100000 nM
same,IC50,Cathepsin L,> 100000 nM
same,IC50,Caspase 2,> 100000 nM
same,decrease of viral yield in cell culture supernatant,WT SARS-CoV-2 HKU-001a,~ 7 log10
same,decrease of viral yield in cell culture supernatant,SARS-CoV-2 B.1.1.7/Alpha,more than 5 log10
same,decrease of viral yield in cell culture supernatant,[1],more than 5 log10
same,decrease of viral yield in cell culture supernatant,SARS-CoV-2 XBB.1.5,more than 5 log10
same,decrease of viral yield in cell culture supernatant,[2],more than 5 log10
same,decrease of viral yield in cell culture supernatant,SARS-CoV-2 EG.5.1,more than 5 log10
same,decrease of viral yield in cell culture supernatant,SARS-CoV-2 JN.1.1,more than 5 log10
same,EC50,SARS-CoV-2 [3],122 ± 13 nM
same,decrease of viral RNA copies in lung,"SARS-CoV-2 [4]; hamster, in vivo",~ 0.7 log
same,decrease of viral RNA copies in trachea,"SARS-CoV-2 [4]; hamster, in vivo",~ 0.65 log
same,live virus titer in hamster lungs,"SARS-CoV-2 [4]; hamster, in vivo",significantly reduced
same,body weight of infected mice,"[5]; mouse, in vivo",less body weight loss
same,delayed death,"[5]; mouse, in vivo",0.6 day/mouse
same,fatality rate,"[5]; mouse, in vivo",100%
same,reduction of SARS-CoV-2 live virus titers in mouse lung,"[5]; mouse, in vivo",more than 2 logs10
same,dose up to which no cytotoxicity was found,VeroE6-TMPRSS2 cells,≥ 400 µM
same,toxicity as reflected by animal body weight change,[6],Negligible toxicity
CC(C)(C)OC(=O)N[C@H](C(=O)N1C[C@H](OC(C)(C)C)C[C@H]1C(=O)N[C@H](C#N)C[C@@H]1CCNC1=O)C(C)(C)C [H118],IC50,SARS-CoV-2 M^pro; mean ± SEM,310 ± 18.9 nM
"CC(C)(C)[C@H](NC(=O)C(F)(F)F)C(=O)N1C[C@H]2[C@@H]([C@H]1C(=O)N[C@H](C#N)C[C@@H]1CCNC1=O)C2(C)C [PF-07321332, nirmatrelvir, reference compound]",live virus titer in hamster lungs,"SARS-CoV-2 [4]; […], H135 300 mg/kg IP QD, nirmatrelvir 300 mg/kg PO BID, three days, P < 0.001 vs DMSO",significantly reduced
same,body weight of infected mice,"[5]; 150 mg/kg daily intraperitoneal, […]",body weight benefits
same,mice protected from death,"[5]; mouse, in vivo",40%
CC(C)(C)OC(=O)N[C@H](C(=O)N1C[C@H](OC(F)(F)F)C[C@H]1C(=O)N[C@H](C#N)C[C@@H]1CCNC1=O)C(C)(C)C [H121],IC50,SARS-CoV-2 M^pro; mean ± SEM,68.6 ± 2 nM
CC(C)(C)[C@H](NC(=O)C1CCC(F)(F)CC1)C(=O)N1C[C@H](OC(F)F)C[C@H]1C(=O)N[C@H](C#N)C[C@@H]1CCNC1=O [H123],IC50,SARS-CoV-2 M^pro; mean ± SEM,860.9 ± 5.1 nM
CO[C@@H]1C[C@@H](C(=O)N[C@H](C#N)C[C@@H]2CCNC2=O)N(C(=O)[C@@H](NC(=O)OC(C)(C)C)C(C)(C)C)C1 [H138],IC50,SARS-CoV-2 M^pro,2960 nM
CC(C)(C)[C@H](NC(=O)N1CC2(COC2)C1)C(=O)N1C[C@H](OC(F)F)C[C@H]1C(=O)N[C@H](C#N)C[C@@H]1CCNC1=O [H129],IC50,SARS-CoV-2 M^pro; mean ± SEM,924 nM
CC(C)(C)OC(=O)N[C@H](C(=O)N1C[C@H](OC(F)F)C[C@H]1C(=O)N[C@H](C#N)C[C@@H]1CCNC1=O)C(C)(C)C [H117],IC50,SARS-CoV-2 M^pro; mean ± SEM,151 ± 5.2 nM
CC(C)(C)OC(=O)N[C@H](C(=O)N[C@@H](Cc1ccccc1)C(=O)N[C@H](C#N)C[C@@H]1CCNC1=O)C(C)(C)C [H109],IC50,SARS-CoV-2 M^pro; mean ± SEM,407 ± 5.6 nM
CC(C)(C)[C@H](NC(=O)C1(F)CC1)C(=O)N1C[C@H](OC(F)F)C[C@H]1C(=O)N[C@H](C#N)C[C@@H]1CCNC1=O [H124],IC50,SARS-CoV-2 M^pro; mean ± SEM,102 ± 2 nM
CN(C(=O)[C@@H](NC(=O)OC(C)(C)C)C(C)(C)C)[C@@H](Cc1ccccc1)C(=O)N[C@H](C#N)C[C@@H]1CCNC1=O [H119],IC50,SARS-CoV-2 M^pro; mean ± SEM,625 ± 10.5 nM
same,decrease in enzyme inhibitory activity,SARS-CoV-2 M^pro; relative to H109,1.5 fold
CC(C)(C)OC(=O)N[C@H](C(=O)N1C[C@H](OC(F)F)C[C@H]1C(=O)N[C@H](C#N)C[C@@H]1CCNC1=O)C1CCCCC1 [H130],IC50,SARS-CoV-2 M^pro; mean ± SEM,70.1 ± 2.8 nM
N#C[C@H](C[C@@H]1CCNC1=O)NC(=O)[C@@H]1C[C@@H](OC(F)F)CN1C(=O)[C@@H](NC(=O)C1(F)CC1)C1CCCCC1 [H136],IC50,SARS-CoV-2 M^pro; mean ± SEM,43.4 ± 2 nM
CC(C)(C)OC(=O)N[C@H](C(=O)N1C[C@H](OCc2ccccc2)C[C@H]1C(=O)N[C@H](C#N)C[C@@H]1CCNC1=O)C(C)(C)C [H139],IC50,SARS-CoV-2 M^pro,3410 nM
CC(C)(C)OC(=O)N[C@H](C(=O)N1C[C@H](OC(F)F)C[C@H]1C(=O)N[C@H](C#N)C[C@@H]1CCNC1=O)C1CCCC1 [H131],IC50,SARS-CoV-2 M^pro; mean ± SEM,79.2 ± 2.1 nM
CC(C)(C)OC(=O)N1C[C@H](OC(F)F)C[C@@H]1C(=O)N1C[C@H](OC(F)F)C[C@H]1C(=O)N[C@H](C#N)C[C@@H]1CCNC1=O [H141],IC50,SARS-CoV-2 M^pro,> 25000 nM
